Data: PubChem BioAssay (NCI)
Several values for one entry are separate records, joined by “and”; a condition that tells them apart may be missing. Equal values may be shown once.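 Compound exposure: 48 hours, 5 concentrations, 96-well plates. At the GI50, growth is halved. Definition used: TGI = concentration required for complete inhibition of growth.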

Experiments:
Assay in all cases: NCI-60 cell line screen, 48 h
[1] = tested on: NCI-H23 lung
[2] = tested on: CAKI-1 renal
[3] = tested on: SNB-75 CNS
[4] = tested on: K-562 leukemia
[5] = tested on: COLO 205 colon
[6] = tested on: PC-3 prostate
[7] = tested on: NCI-H460 lung
[8] = tested on: DU-145 prostate
[9] = tested on: MDA-MB-435
[10] = tested on: SK-MEL-5 melanoma

| Structure (SMILES) | TGI [1] [µM] | TGI [2] | TGI [3] [µM] | TGI [4] | TGI [5] | TGI [6] | TGI [7] [µM] | TGI [8] | GI50 [1] [µM] | GI50 [2] [µM] | GI50 [9] | TGI [9] | GI50 [10] [µM] | TGI [10] | GI50 [4] [µM] | GI50 [5] [µM] | GI50 [6] [µM] | GI50 [7] [µM] | GI50 [8] [µM] | GI50 [3] [µM] |
| --- | --- | --- | --- | --- | --- | --- | --- | --- | --- | --- | --- | --- | --- | --- | --- | --- | --- | --- | --- | --- |
| O=C1c2ccccc2-c2nc3ccncc3n21 | > 100 | > 100 µM | > 100 | > 100 µM | > 100 µM | > 100 µM | > 100 | > 100 µM | – | – | – | – | – | – | – | – | – | – | – | – |
| COc1cc2c(/C=C3\C(=O)Nc4ccccc43)c[nH]c2cc1C | 0.0719 | 13.3 µM | – | 61.4 µM | 4.39 µM | 13.2 µM | > 100 | 12.3 µM | 0.0115 | 0.409 | 0.0566 µM | 0.403 µM | < 0.015 | 1.89 µM | 0.225 | 0.118 | 0.213 | 0.0761 | 0.0242 | – |
| Cc1c(C)c([N+](=O)[O-])c2c(c1N)C(=O)c1ccccc1C2=O | > 100 | – | > 100 | > 100 µM | > 100 µM | – | – | – | – | – | – | – | – | > 100 µM | – | – | – | – | – | – |
| CCC[CH2][Sn-]([CH2]CCC)([CH2]CCC)[O]C(=O)C(C)C | 0.31 | 0.279 µM | – | 0.315 µM | 0.274 µM | 0.25 µM | 0.197 | 0.252 µM | 0.115 | 0.122 | 0.153 µM | 0.289 µM | 0.157 | 0.291 µM | 0.146 | 0.13 | 0.107 | 0.0571 | 0.124 | – |
| O=C1CC23CCCCCCCCCCC2(C1)CC(=O)C3 (stereo not drawn) | > 100 | – | – | 73.3 µM | 33.5 µM | – | > 100 | – | – | – | – | – | – | 32.4 µM | – | – | – | – | – | – |
| Cc1ccccc1NC(=O)CSc1nnc(-c2ccc(N=Cc3ccc(Cl)cc3)cc2)o1 | > 100 | – | > 100 | > 100 µM | > 100 µM | – | > 100 | – | – | – | – | – | – | > 100 µM | – | – | – | – | – | – |
| COC1(OC)C2(Cl)C3=CCCC=C3C1(Cl)C(Cl)=C2Cl | 62.2 | 84.2 µM | > 100 | – | 37.7 µM | – | > 100 | – | – | – | – | – | – | 29.2 µM | – | – | – | – | – | – |
| Cc1cccc(C)c1NC(=O)C(=O)Cc1nc2ccccc2s1 | > 100 | > 100 µM | > 100 | > 100 µM | > 100 µM | – | > 100 | – | – | – | – | – | – | > 100 µM | – | – | – | – | – | – |
| COc1cc(N2C(=O)[C@H](Cl)C2c2ccc(SC)cc2)cc(OC)c1OC (stereo partly drawn) | > 100 | > 100 µM | > 100 | > 100 µM | 11.4 µM | > 100 µM | 11.6 | > 100 µM | 0.121 | 0.0484 | – | – | 0.0522 | 0.468 µM | 0.0366 | 0.0677 | 0.0952 | 0.362 | 0.168 | 0.0236 |
| OCc1ccc(N(Cc2ccc(F)cc2)Cc2ccc(F)cc2)cc1Cl | 24.3 | 5.87 µM | 22 | 23.1 µM | 24.4 µM | 22.8 µM | 17.1 | – | 7.95 | 1.7 | 10.2 µM | 22.4 µM | 15.3 | 28.9 µM | 4.93 | 11.7 | 9.08 | 3.64 | – | 7.74 |
| COC(=O)C1CC(c2ccc(OC)c(OC)c2)OC1=O (mixture of isomers) | > 100 | > 100 µM | > 100 | > 100 µM | > 100 µM | – | > 100 | – | – | – | – | – | – | > 100 µM | – | – | – | – | – | – |
| OCC(O)C(O)C(O)C(/C=N\Nc1ncnc2c(Br)cc(Br)cc12)=N/Nc1ncnc2c(Br)cc(Br)cc12 (stereo not drawn) | – | 26.7 µM and > 100 µM | – | 26.9 µM and > 100 µM | 13 µM and 22 µM | 13 µM and > 100 µM | – | 14.7 µM and > 100 µM | – | – | 5.24 µM and 12.6 µM | 21.7 µM and > 100 µM | – | 16.4 µM and 18.7 µM | – | – | – | – | – | – |
| COc1cc2c(cc1C)NC(=O)/C2=C/c1ccnc2ccccc12 | > 50 | > 50 µM | – | 33.6 µM | > 50 µM | > 50 µM | > 50 | > 50 µM | 25.5 | 16.2 | 11.4 µM | > 50 µM | 7.89 | 31.3 µM | 6.34 | 38.9 | 7.07 | 15.3 | 29.1 | – |
| Cc1cccc(C2NC(=O)c3ccccc3N2)c1 (stereo not drawn) | > 54.7 | > 100 µM | > 100 | – | > 100 µM | > 100 µM | > 100 | > 100 µM | – | – | – | 2.77 µM | – | > 100 µM | – | – | – | – | – | – |
| COC(=O)C1C=CCC2CCCCC21N1CCCC1 (stereo not drawn) | – | > 100 µM | > 100 | – | > 100 µM | – | > 100 | – | – | – | – | – | – | > 100 µM | – | – | – | – | – | – |
| COc1cc2c(cc1OCCNC(=O)/C=C1\C[C@H]3C=Nc4cc(OCc5ccccc5)c(OC)cc4C(=O)N3C1)N=C[C@@H]1CCCN1C2=O | 27 | > 100 µM | – | 13.6 µM | 68.5 µM | 33.7 µM | 30.6 | 37.3 µM | 9.26 | 32.3 | 2.97 µM | 9.79 µM | 1.3 | 20.8 µM | 2.78 | 14.9 | 3.53 | 13.6 | 19.4 | – |
| COc1ccc(-c2ccc(C3CC(c4ccccc4)=NN3)o2)c([N+](=O)[O-])c1 (stereo not drawn) | > 100 | > 100 µM | – | > 100 µM | > 100 µM | > 100 µM | > 100 | > 100 µM | 39.1 | 34.4 | 32.4 µM | > 100 µM | – | – | 34.5 | 52.9 | 37.3 | 36.5 | 82.6 | – |
| O=c1c(Cc2ccc3c(c2)OCO3)nnc2sc(-c3cc(F)c(Cl)cc3Cl)nn12 | > 100 | – | > 100 | > 100 µM | 59.2 µM | > 100 µM | > 100 | – | 82.5 | – | 52.9 µM | > 100 µM | 19.3 | 50.7 µM | 42.8 | 22.6 | 35.4 | 50.8 | – | 28.5 |
| O=C1NC(O)n2c(=O)[nH]c(=O)n21 (stereo not drawn) | > 100 | > 100 µM | > 100 | > 100 µM | > 100 µM | – | > 100 | – | – | – | – | – | – | > 100 µM | – | – | – | – | – | – |
